Measured values from article PMC9697438, “Therapeutic Potential of 2-Methylquinazolin-4(3H)-one as an Antiviral Agent against Influenza A Virus-Induced Acute Lung Injury in Mice” (Molecules, 2022).
In brackets after ≈: the same amount, converted by molar mass. Read-outs that look alike come from different tables or passages of the source.

Experiments:
hepatitis C virus = system: hepatitis C virus; parameters: method as in earlier work; conditions: cited from earlier work
A549 cells [1] = conditions: human
H1N1 virus = experiment: microbe, parasite or virus in culture; format: cell-based, influenza A virus; conditions: for IC50: Influenza A virus, H1N1, MDCK, 72 h
Solubility observation = format: physicochemical; conditions: sterile water
A549 cells [2] = experiment: MTT cytotoxicity assay (TC50)
[3] = system: cytokines in lung homogenates; experiment: ELISA of cytokines in lung tissue homogenates of H1N1-infected mice; format: in vivo, BALB/c mice; conditions: for expression level of IL-10 in lung homogenates / expression level of INF-γ in lung homogenates: C1 10 mg/kg, Os. 20 mg/kg, vs H1N1 virus group; for IL-1β level in lung homogenates / IL-6 level in lung homogenates / MCP-1 production in lung homogenates / TNF-α level in lung homogenates: C1 2.5, 5, 10 mg/kg, oseltamivir phosphate 20 mg/kg, vs model group, dose-dependent, p < 0.001, day 4
Protocol: (§1) Five-week-old healthy male BALB/c mice (n = 6 per group) were maintained in pathogen-free individual cages with free access to drinking water and sterilized food, as described previously. The mice were randomly allocated into the following groups: normal control group, H1N1 model group, C1 (2.5, 5, 10 mg/kg) treatment group, and positive control group treated with oseltamivir (20 mg/kg, positive control). Except for normal controls, the rest of mice were intranasally infected with 30 μL of diluted H1N1virus (3LD50) after light anesthesia. Negative control mice (normal group) were challenged by inhaling equal volumes (30 μL) of virus diluent as the other mice. Then, 2 h later, C1 (2.5, 5, 10 mg/kg) and Oseltamivir (20 mg/kg) dissolved in 5% CMC-Na solution were given to mice (0.1 mL/10 g) once per day (i.g.) at day 0 (D0), day 1 (D1), day 2 (D2) and day 3 (D3) after infection with H1N1 virus. At the same time, normal and model groups were administered equivalent amounts of 0.5% CMC-Na in the same way. Post-infection on day 4, the mice were sacrificed to collect blood plasma, lung and liver, which were weighed.
Pulmonary tissue homogenates were collected from mice lungs by centrifugation at 4500 rpm for 20 min. BCA assay was used to quantify the total protein in the supernatant of lung homogenates. Cytokine levels of IL-1β, IL-6, TNF-α, IL-10, MCP-1, INF-γ and INF-α were determined, as instructed by the manufacturer.
Figure 5 C1-alleviated lung injury in mice after 4 days of administration (n = 6, means ± S.D.); the experiment design is the same as Figure 3. Concentration of chemokines/cytokines/interferon was measured on day 4 post-infection by ELISA in lung homogenates (n = 6). (A) IL-6; (B) IL-1β; (C) TNF-α; (D) MCP-1; (E) IL-10; (F) IFN-γ.

[4] = system: influenza A virus nucleoprotein (NP); experiment: Immunohistochemistry of viral nucleoprotein in lung tissue of H1N1-infected mice; format: in vivo, BALB/c mice; conditions: C1-treated mice vs indirubin-treated mice and model group; day 4
Protocol: Five-week-old healthy male BALB/c mice (n = 6 per group) were maintained in pathogen-free individual cages with free access to drinking water and sterilized food, as described previously. The mice were randomly allocated into the following groups: normal control group, H1N1 model group, C1 (2.5, 5, 10 mg/kg) treatment group, and positive control group treated with oseltamivir (20 mg/kg, positive control). Except for normal controls, the rest of mice were intranasally infected with 30 μL of diluted H1N1virus (3LD50) after light anesthesia. Negative control mice (normal group) were challenged by inhaling equal volumes (30 μL) of virus diluent as the other mice. […]
Influenza virus load, expression of NPs and ionized calcium binding adaptor molecule-1(Iba-1) were determined using IHC. […]
Figure 4 Suppression of H1N1 viral replication in vivo by C1, the experimental protocol is the same as Figure 3. (A) The NA activity in lung homogenates by fluorescence effect; (B) The expression level of INF-α in lung homogenates by ELISA; (C) The expression of NP in lung tissue, the representative IHC pathological images of the lung on day 4 post-infection, the red arrow indicates viral N protein-positive signal. […]

[5] = system: influenza virus H1N1 (A/FM/1/47); conditions: for lung index: day 4, p < 0.001 vs model
[6] = system: ionized calcium binding adaptor molecule-1 (Iba-1); parameters: species or system BALB/c mice; conditions: mouse, in vivo
neuraminidase (NA) = experiment: Neuraminidase activity assay in lung homogenates of H1N1-infected mice; format: in vivo, BALB/c mice
Protocol: as §1, with “At the same time, normal and model groups were administered equivalent amounts of 0.5% CMC-Na in the same way. Post-infection on day 4, the mice were sacrificed to collect blood plasma, lung and liver, which were weighed.” left out
Viral titers were measured using neuraminidase (NA) assay kit designed to detect antiviral effects. […] A reaction mixture consisted of 10 μL lung homogenates, 70 μL detection buffer, 10 μL Mill-Q water and 10 μL NA fluorescence substrate in a 96-well plate. […] The fluorescence of the mixture was quantified at 322 nm of excitation wavelength and 450 nm of emission wavelength with a muti-mode microplate read (Waltham, VT, USA). […]

H1N1 influenza virus = experiment: H1N1-induced ALI in mice treated with EA extract: lung index, liver index, body weight, H&E; format: in vivo

CC1(C)C[C@H](O)C[C@@]2(C)OC(=O)C=C12 [Compound C2, loliolide]
inhibition of the hepatitis C virus (hepatitis C virus): potent inhibitor | TC50 (A549 cells [1]): 26.7 µg/mL (≈ 136 µM) | antiviral activity (H1N1 virus): did not exert any antiviral activity

Cc1nc2ccccc2c(=O)[nH]1 [Compound C1, 2-Methylquinazolin-4(3H)-one]
solubility (Solubility observation): soluble | TC50 (A549 cells [2]): 79.7 µg/mL (≈ 498 µM) | expression level of IL-10 in lung homogenates [3]: higher | expression level of INF-γ in lung homogenates [3]: higher | IL-1β level in lung homogenates [3]: significantly reduced | IL-6 level in lung homogenates [3]: significantly reduced | MCP-1 production in lung homogenates [3]: significantly reduced | TNF-α level in lung homogenates [3]: significantly reduced | production of IFN-α in lung homogenates ([3]; after treatment with C1, ELISA): remarkably decreased | viral N protein-positive signals in lung tissue [4]: fewer positive signals | lung index ([5]; C1 2.5 mg/kg i.g. once daily D0-D3, model 10.27 ± 0.50, normal 6.40 ± 0.14): 8.85 ± 0.47 mg/g | weight rate of mice raised ([5]; C1 2.5 mg/kg, days 0-4, model decreased 4.5%): 2% | lung index ([5]; C1 5 mg/kg i.g. once daily D0-D3, model 10.27 ± 0.50): 8.60 ± 0.29 mg/g | weight rate of mice decreased ([5]; C1 5 mg/kg, days 0-4, model decreased 4.5%): 2% | lung index ([5]; C1 10 mg/kg i.g. once daily D0-D3, model 10.27 ± 0.50): 8.36 ± 0.28 mg/g | weight rate of mice raised ([5]; C1 10 mg/kg, days 0-4): 0.2% | lung histological damage (H&E) ([5]; mouse, in vivo): significantly less | toxicity on liver and spleen ([5]; mouse, in vivo, po): no toxicity | Iba-1 positive signals in lung tissue (macrophage recruitment) [6]: fewer positive signals | NA activity in lung homogenates (neuraminidase (NA); C1 2.5 mg/kg, vs model control): no differences | NA activity in lung homogenates (neuraminidase (NA); C1 5, 10 mg/kg, vs model group, p < 0.05): significantly lower | IC50 (H1N1 virus): 23.8 µg/mL (≈ 149 µM)

CCOC(=O)C1=C[C@@H](OC(CC)CC)[C@H](NC(C)=O)[C@@H](N)C1 [Os., Oseltamivir phosphate, reference compound]
expression level of IL-10 in lung homogenates [3]: higher | expression level of INF-γ in lung homogenates [3]: higher | IL-1β level in lung homogenates [3]: significantly reduced | IL-6 level in lung homogenates [3]: significantly reduced | MCP-1 production in lung homogenates [3]: significantly reduced | TNF-α level in lung homogenates [3]: significantly reduced | weight rate of mice raised ([5]; Os. 20 mg/kg, days 0-4): 21.6% | lung histological damage (H&E) ([5]; mouse, in vivo): significantly less

Cc1nc2ccccc2c(=O)n1-c1ccccc1O [Compound C3, 3-(2′-Hydroxyphenyl)-2-methyl-4(3H)-quinazolinone]
TC50 (A549 cells [2]): 106.8 µg/mL (≈ 423 µM) | IC50 (H1N1 virus): 100 µg/mL (≈ 396 µM)

NC(=O)c1ncn([C@@H]2O[C@H](CO)[C@@H](O)[C@H]2O)n1 [Ribavrin, Ribavirin]
body weight over 5 days (H1N1 influenza virus; EA extract 10 mg/kg, Ribavirbin 100 mg/kg, day 1 to day 5): gained weight | lung tissue histological changes (H&E) (H1N1 influenza virus; EA extract and Ribavirin groups compared to the infected group): relieved tissue consolidation | lung index (H1N1 influenza virus; Ribavirbin 100 mg/kg i.g. once daily 4 days, model 11.58 ± 0.39, p < 0.001): 7.32 ± 0.39 mg/g | liver index (H1N1 influenza virus; Ribavirbin 100 mg/kg, model 50.73 ± 0.58, normal 62.79 ± 1.24): 59.60 ± 1.68 mg/g | IC50 (H1N1 virus): 37.2 µg/mL (≈ 152 µM)

O=C1c2cc(O)cc(O)c2CN1c1ccc(O)cc1 [Compound C4, clitocybin A]
TC50 (A549 cells [2]): 167.7 µg/mL (≈ 652 µM) | antiviral activity (H1N1 virus): did not exert any antiviral activity

O=C1Nc2ccccc2/C1=C1/Nc2ccccc2C1=O [indirubin, reference compound]
lung edema measured as lung index ([5]; mouse, in vivo): minimal effect | lung histological damage (H&E) ([5]; mouse, in vivo): no evident histological alteration | Iba-1 positive signals in lung tissue (macrophage recruitment) [6]: fewer positive signals
